What was measured:
Assay in all cases: CYP inhibition, recombinant enzyme, fluorescence
Type in all cases: in vitro ADME
CYP1A2 = target: T1, CYP1A2 (Homo sapiens, UniProt P05177); conditions: recombinant CYP1A2, pH 7.4, 10 μM compound, 30 min pre-incubation, read-out: CYP inhibition (%) at 10 μM, 1A2
T1 sequence (P05177 1-516): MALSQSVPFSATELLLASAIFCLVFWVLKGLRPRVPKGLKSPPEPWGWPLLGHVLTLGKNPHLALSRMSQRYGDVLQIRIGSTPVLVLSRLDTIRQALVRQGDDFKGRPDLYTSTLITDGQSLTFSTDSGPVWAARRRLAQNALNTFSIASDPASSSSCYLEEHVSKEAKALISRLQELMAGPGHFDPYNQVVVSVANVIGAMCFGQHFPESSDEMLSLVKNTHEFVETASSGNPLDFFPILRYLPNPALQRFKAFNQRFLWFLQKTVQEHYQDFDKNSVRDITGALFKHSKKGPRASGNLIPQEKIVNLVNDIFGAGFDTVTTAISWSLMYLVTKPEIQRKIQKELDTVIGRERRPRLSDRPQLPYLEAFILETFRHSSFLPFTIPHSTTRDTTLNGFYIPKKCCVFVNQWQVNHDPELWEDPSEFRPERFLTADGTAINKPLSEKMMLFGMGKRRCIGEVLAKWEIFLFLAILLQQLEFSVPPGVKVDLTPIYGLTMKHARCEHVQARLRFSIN
Protocol: (§1) The following Table 8 was referred for the use of a probe substrate, positive control, and isozyme and measurement conditions with respect to the measurement of the inhibitory ability of each substance. [table] […] The buffer spiked with experimental compound was mixed with the same volume of CYP isozyme prep solution so that the final concentration was 10 μM, followed by pre-warming for 10 minutes in a 37° C. fluorescence plate-reader. Each well NRS solution (NADPH Regeneration System: 0.22 mM β-NADP, 2.8 mM glucose-6-phosphate, and 0.6 units/mL of glucose-6-phosphate dehydrogenase) was added, followed by pre-incubation for 30 minutes. Thereafter, the reaction was initiated by adding the substrate to the well subjected to pre-incubation and monitored at intervals of one minute at the measurement wavelength for each substrate for 30 minutes. The measured values obtained from the positive control and the compound of Example 1 were compared with the fluorescence intensity of a negative control (no inhibition or compound) to confirm the inhibitory ability of each compound against isozyme. Inhibitory activity (%) was expressed based on the following criteria: […]

CYP2C19 = CYP2C19 (Homo sapiens, UniProt P33261); conditions: recombinant CYP2C19, pH 7.4, 10 μM compound, 30 min pre-incubation, read-out: CYP inhibition (%) at 10 μM, 2C19
Sequence of CYP2C19 (P33261 whole entry): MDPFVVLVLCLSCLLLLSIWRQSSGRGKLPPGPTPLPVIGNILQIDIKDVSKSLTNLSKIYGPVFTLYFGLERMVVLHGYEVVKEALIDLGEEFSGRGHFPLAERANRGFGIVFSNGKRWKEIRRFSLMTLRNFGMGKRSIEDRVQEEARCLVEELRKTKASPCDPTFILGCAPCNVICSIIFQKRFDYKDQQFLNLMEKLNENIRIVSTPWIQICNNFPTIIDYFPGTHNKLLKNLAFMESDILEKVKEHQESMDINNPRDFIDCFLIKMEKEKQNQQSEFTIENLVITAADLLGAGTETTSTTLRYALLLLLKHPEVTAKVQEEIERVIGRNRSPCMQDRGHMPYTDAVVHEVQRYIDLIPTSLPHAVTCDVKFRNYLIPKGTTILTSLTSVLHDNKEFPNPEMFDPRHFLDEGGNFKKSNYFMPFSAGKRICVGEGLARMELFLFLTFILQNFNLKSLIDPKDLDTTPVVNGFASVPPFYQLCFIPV
Protocol: as §1

CYP2C9 = CYP2C9 (Homo sapiens, UniProt P11712); conditions: 10 μM compound; for inhibition at 30 min, 10 µM: human, recombinant CYP2C9, pH 7.4, 30 min pre-incubation, read-out: CYP inhibition (%) at 10 μM, 2C9
Sequence of CYP2C9 (P11712 whole entry): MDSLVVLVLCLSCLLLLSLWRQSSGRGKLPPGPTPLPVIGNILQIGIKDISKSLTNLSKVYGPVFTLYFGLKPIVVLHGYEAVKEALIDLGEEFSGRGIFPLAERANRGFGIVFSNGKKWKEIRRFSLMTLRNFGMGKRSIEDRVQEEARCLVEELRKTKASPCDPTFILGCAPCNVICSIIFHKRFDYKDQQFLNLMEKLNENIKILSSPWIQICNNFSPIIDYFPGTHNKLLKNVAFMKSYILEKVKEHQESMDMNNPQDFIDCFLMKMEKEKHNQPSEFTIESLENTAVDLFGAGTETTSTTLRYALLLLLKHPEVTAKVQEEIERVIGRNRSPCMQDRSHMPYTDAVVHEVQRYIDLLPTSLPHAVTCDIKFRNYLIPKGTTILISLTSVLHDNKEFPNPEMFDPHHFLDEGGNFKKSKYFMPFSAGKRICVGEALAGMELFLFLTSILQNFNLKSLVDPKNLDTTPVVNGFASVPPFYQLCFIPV
Protocol: as §1

CYP2D6 = CYP2D6 (Homo sapiens, UniProt P10635); conditions: recombinant CYP2D6, pH 7.4, 10 μM compound, 30 min pre-incubation, read-out: CYP inhibition (%) at 10 μM, 2D6
Sequence of CYP2D6 (P10635 whole entry): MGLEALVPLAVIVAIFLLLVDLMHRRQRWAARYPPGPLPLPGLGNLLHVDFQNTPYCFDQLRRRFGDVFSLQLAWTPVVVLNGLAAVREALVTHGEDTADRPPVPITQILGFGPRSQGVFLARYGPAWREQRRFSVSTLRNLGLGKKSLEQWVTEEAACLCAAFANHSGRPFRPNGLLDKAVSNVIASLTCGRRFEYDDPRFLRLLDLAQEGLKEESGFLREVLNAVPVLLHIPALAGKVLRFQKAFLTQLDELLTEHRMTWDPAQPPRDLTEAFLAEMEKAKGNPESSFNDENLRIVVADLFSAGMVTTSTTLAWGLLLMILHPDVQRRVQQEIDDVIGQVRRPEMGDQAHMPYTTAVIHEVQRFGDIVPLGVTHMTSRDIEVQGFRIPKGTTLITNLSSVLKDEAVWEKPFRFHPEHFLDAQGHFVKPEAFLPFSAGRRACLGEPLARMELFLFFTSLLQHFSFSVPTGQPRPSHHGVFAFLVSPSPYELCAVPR
Protocol: as §1

CYP3A4 = CYP3A4 (Homo sapiens, UniProt P08684); conditions: recombinant CYP3A4, pH 7.4, 10 μM compound, 30 min pre-incubation, read-out: CYP inhibition (%) at 10 μM, 3A4
Sequence of CYP3A4 (P08684 whole entry): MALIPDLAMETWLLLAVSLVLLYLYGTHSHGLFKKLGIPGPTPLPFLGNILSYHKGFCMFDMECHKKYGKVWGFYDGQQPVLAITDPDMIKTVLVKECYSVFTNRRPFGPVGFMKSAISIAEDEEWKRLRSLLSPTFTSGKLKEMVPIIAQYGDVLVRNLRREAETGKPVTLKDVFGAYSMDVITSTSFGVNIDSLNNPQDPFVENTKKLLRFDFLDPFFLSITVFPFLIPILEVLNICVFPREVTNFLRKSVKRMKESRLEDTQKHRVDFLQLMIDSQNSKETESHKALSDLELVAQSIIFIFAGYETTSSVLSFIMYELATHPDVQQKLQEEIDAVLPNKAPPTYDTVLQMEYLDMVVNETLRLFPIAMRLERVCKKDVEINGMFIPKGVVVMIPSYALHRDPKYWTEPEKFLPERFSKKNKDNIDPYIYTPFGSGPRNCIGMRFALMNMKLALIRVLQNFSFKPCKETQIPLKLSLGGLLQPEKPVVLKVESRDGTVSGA
Protocol: as §1

| Compound | inhibition at 30 min, 10 µM (CYP1A2) [%] | inhibition at 30 min, 10 µM (CYP2C19) [%] | Inhibitory ability against CYP2C9 (in words) (CYP2C9) | inhibition at 30 min, 10 µM (CYP2C9) [%] | inhibition at 30 min, 10 µM (CYP2D6) [%] | inhibition at 30 min, 10 µM (CYP3A4) [%] |
| --- | --- | --- | --- | --- | --- | --- |
| CC(=O)N(C1CCC(C)(C)CC1)[C@H]1C[C@@H](C(=O)N2CCOCC2)N(C(=O)[C@@H]2CN(C(C)(C)C)C[C@H]2c2ccc(Cl)cc2)C1.Cl [Comparative Example 2 (A96), N-((3S,5S)-1-((3S,4R)-1-(tert-butyl)-4-(4-chlorophenyl)pyrrolidine-3-carbonyl)-5-(morpholine-4-carbonyl)pyrrolidin-3-yl)-N-(4,4-dimethylcyclohexyl)acetamide hydrochloride] | < 50 | < 50 | very high inhibitory ability | > 50 | < 50 | < 50 |
| CC(C)C(=O)N([C@H]1C[C@@H](C(=O)N2CCOCC2)N(C(=O)[C@@H]2CN(C(C)(C)C)C[C@H]2c2ccc(Cl)cc2)C1)[C@H]1CC[C@@H](C)CC1.Cl [Example 1, N-((3S,5S)-1-((3S,4R)-1-(tert-butyl)-4-(4-chlorophenyl)pyrrolidine-3-carbonyl)-5-(morpholine-4-carbonyl)pyrrolidin-3-yl)-N-((1s,4R)-4-methylcyclohexyl)isobutyramide hydrochloride] | < 50 | < 50 |  | < 50 | < 50 | < 50 |

Source: US20220289731A1, “MELANOCORTIN-4 RECEPTOR AGONISTS” (LG CHEM, LTD., priority 2019, published 2022)
